Structures are written as SMILES.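 Growth conditions: 96-well plates. Treatment: test compound, 48 hours, 5 concentrations. Analysis: linear interpolation between bracketing concentrations; unreached endpoints set to highest concentration. GI50 marks 50% less growth. TGI marks complete inhibition of growth.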

Test systems include HT29 colon; HCC-2998 colon; SF-295 CNS; SN12C renal; CCRF-CEM leukemia; HOP-62 NSCLC; SW-620 colon; CAKI-1 renal; NCI-H522 lung.
Assay in all cases: growth of human tumour cells (NCI), 48 h

Take `O=C1C2C3C=C4c5ccccc5N(c5ccccc5)C4(C2C(=O)N1c1ccccc1)C1C(=O)N(c2ccccc2)C(=O)C31` (stereo unspecified): the TGI with HT29 colon, in the assay on HCC-2998 colon, in the assay with SF-295 CNS, with SN12C renal, in the assay on CCRF-CEM leukemia and with HOP-62 NSCLC was more than 100 µM in each case. In addition, the TGI with SW-620 colon and in the assay with CAKI-1 renal was more than 100 µM each time.
Regarding `O=C1C[C@H]2CCCN2[C@@H](c2ccccc2)C1`, the TGI in the assay with HT29 colon, with HCC-2998 colon, in the assay on SF-295 CNS, in the assay on SN12C renal, in the assay on CCRF-CEM leukemia and with HOP-62 NSCLC was more than 100 µM in each case. The TGI with SW-620 colon, in the assay with CAKI-1 renal and in the assay on NCI-H522 lung was more than 100 µM each time.
On to `O=C(O)CCNS(=O)(=O)c1ccc(NC(=O)c2ccccc2)cc1`, for which the TGI in the assay on HT29 colon, with HCC-2998 colon, with SF-295 CNS, with SN12C renal, in the assay with CCRF-CEM leukemia and with SW-620 colon was more than 100 µM throughout. Moreover, the TGI with CAKI-1 renal and with NCI-H522 lung was more than 100 µM each time.
`Cc1cc2c(C)nn(Cc3ccccc3)c2c(C(=O)O)c1C`: the TGI in the assay with HCC-2998 colon, with SF-295 CNS, in the assay with SN12C renal, in the assay with CCRF-CEM leukemia, with HOP-62 NSCLC and with SW-620 colon was more than 100 µM in each case.
On to `CN(C(=O)/C=C/c1ccccc1)C1C2CN3CCC(O2)C13` (stereo unspecified), for which the TGI in the assay on HT29 colon, in the assay on HCC-2998 colon, in the assay on SF-295 CNS, in the assay on SN12C renal, in the assay on CCRF-CEM leukemia and in the assay on HOP-62 NSCLC was more than 100 µM each time. In addition, the TGI in the assay on SW-620 colon, in the assay with CAKI-1 renal and in the assay on NCI-H522 lung was more than 100 µM each time.
On to `O=C(NCCCOC(=O)CCCCCCCCC(=O)OCCCNC(=O)NC(=O)c1c[nH]c(=O)[nH]c1=O)NC(=O)c1c[nH]c(=O)[nH]c1=O`, for which the TGI with HCC-2998 colon, in the assay with SF-295 CNS, in the assay on SN12C renal, in the assay on CCRF-CEM leukemia, in the assay with HOP-62 NSCLC and with SW-620 colon was more than 100 µM each time. In the assay on CAKI-1 renal, this molecule came in with a TGI of more than 100 µM.
Take `O=c1cc(-c2cccs2)[nH]c2cc3c(cc12)OCO3`: the TGI is more than 74.7 µM with HT29 colon; more than 51.6 µM with HCC-2998 colon; more than 49 µM in the assay with SF-295 CNS; more than 100 µM with SN12C renal; more than 100 µM with CCRF-CEM leukemia; 39.4 µM with HOP-62 NSCLC. For the same molecule, the results for the TGI in the assay on SW-620 colon and in the assay with NCI-H522 lung were more than 100 µM and 6.92 µM, respectively.
Take `O=C1Nc2ccccc2C1(O)C/C(=N/O)c1ccc2ccccc2c1` (stereo unspecified): the TGI in the assay on HT29 colon, in the assay on HCC-2998 colon, in the assay with SF-295 CNS, with SN12C renal, in the assay with CCRF-CEM leukemia and in the assay on HOP-62 NSCLC was more than 100 µM in each case. In addition, the TGI in the assay with SW-620 colon and in the assay on NCI-H522 lung was more than 100 µM each time.
With `C[N+](C)(C)CCC(=O)CC[N+](C)(C)C`, the TGI with HT29 colon is 31.6 µM; in the assay on HCC-2998 colon, 53.9 µM; with SF-295 CNS, 34.5 µM; with CCRF-CEM leukemia, 7.42 µM; in the assay with HOP-62 NSCLC, more than 100 µM; in the assay on SW-620 colon it was 35.4 µM. Further, the TGI with CAKI-1 renal came out at 29.2 µM; in the assay on NCI-H522 lung, 29.4 µM.
Take `CC1=C(C(=O)Nc2ccccc2C)C(c2ccc(Cl)cc2)C(C(=O)Nc2ccccc2C)=C(C)N1`: the TGI in the assay on HT29 colon, in the assay on HCC-2998 colon, with SF-295 CNS, in the assay on SN12C renal, with CCRF-CEM leukemia and in the assay on HOP-62 NSCLC was more than 100 µM each time. Moreover, the TGI with SW-620 colon, with CAKI-1 renal and in the assay on NCI-H522 lung was more than 100 µM in each case.
Take `Cn1c(=O)c(N=Nc2c(=O)n(C)c(=O)n3c2[nH]c2ccccc23)c2[nH]c3ccccc3n2c1=O`: the TGI with HT29 colon, with HCC-2998 colon, with SF-295 CNS, in the assay with CCRF-CEM leukemia, in the assay with HOP-62 NSCLC and with SW-620 colon was more than 100 µM throughout. For the same molecule, the TGI with CAKI-1 renal and in the assay with NCI-H522 lung was more than 100 µM each time.
On to `COC(=O)/C(=N\NC(C)(C)C)C(C(=O)OC)C(=O)C(=O)Nc1cc(Cl)ccc1Cl` (stereo unspecified), for which the TGI with HT29 colon, with HCC-2998 colon, in the assay on SF-295 CNS, with SN12C renal, in the assay on CCRF-CEM leukemia and with HOP-62 NSCLC was more than 100 µM each time. Further, the TGI in the assay on SW-620 colon, in the assay on CAKI-1 renal and with NCI-H522 lung was more than 100 µM throughout.
Regarding `Nc1ncnc2c1ncn2C1OC(CSCC(F)(F)F)C(O)C1O` (stereo unspecified), the TGI in the assay with HT29 colon, in the assay with HCC-2998 colon, in the assay with SF-295 CNS, in the assay on SN12C renal, in the assay with HOP-62 NSCLC and in the assay with SW-620 colon was more than 100 µM throughout. The TGI in the assay on CAKI-1 renal and with NCI-H522 lung was more than 100 µM throughout.
With `CCOC(=O)Cc1nc2ccc3c(c2[nH]c1=O)C(=O)c1ccccc1C3=O`, the TGI in the assay with HT29 colon, in the assay with HCC-2998 colon, in the assay on SN12C renal, in the assay on CCRF-CEM leukemia, in the assay with HOP-62 NSCLC and in the assay on SW-620 colon was more than 100 µM each time. The TGI with CAKI-1 renal and in the assay on NCI-H522 lung was more than 100 µM each time.
As to `CC[O-].CC[O-].O=C([CH-]C(=O)c1ccccc1)CCCCCCCCC(=O)[CH-]C(=O)c1ccccc1.[Ti+4]`, the GI50 was more than 100 µM with HT29 colon; more than 100 µM in the assay with HCC-2998 colon; 1.52 µM in the assay on SF-295 CNS; more than 100 µM in the assay on SN12C renal; 41.8 µM with CCRF-CEM leukemia; more than 100 µM with HOP-62 NSCLC. Besides, the GI50 with SW-620 colon, in the assay with CAKI-1 renal and in the assay with NCI-H522 lung was more than 100 µM throughout. The TGI with HT29 colon, in the assay on HCC-2998 colon, in the assay with SF-295 CNS, in the assay with SN12C renal, in the assay with CCRF-CEM leukemia and in the assay with HOP-62 NSCLC was more than 100 µM in each case. The TGI in the assay on SW-620 colon, in the assay with CAKI-1 renal and in the assay on NCI-H522 lung was more than 100 µM in each case.

The values are drawn from PubChem BioAssay (NCI).
